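Dose response: 5 concentrations. Exposure: 48 h. Format: 96-well plates. Endpoint: linear interpolation; highest concentration if not reached. GI50 = concentration required for 50% inhibition of growth. TGI: concentration producing complete growth inhibition.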

Test systems include HCT-116 colon; TK-10 renal; HOP-92 NSCLC; HT29 colon; MALME-3M melanoma; UACC-257 melanoma; UO-31 renal; CAKI-1 renal; CCRF-CEM leukemia; OVCAR-4 ovarian.
Holding throughout (assay): DTP human tumour cell line panel, 48 h

Consider `NC(=NC1C2CC3CC(C2)CC1C3)Nc1ccc(I)cc1` (centres undefined), for which the GI50 in the test with HCT-116 colon was 3.11 µM; in the test on TK-10 renal, 2.59 µM; with HOP-92 NSCLC it was 1.6 µM; with HT29 colon it was 3.1 µM; in the test with MALME-3M melanoma it was 2.09 µM; with UACC-257 melanoma, 2.16 µM. Besides, the GI50 was 2.67 µM in the test with UO-31 renal, 3.29 µM in the test on CAKI-1 renal, 3.43 µM in the test with CCRF-CEM leukemia and 3.26 µM in the test with OVCAR-4 ovarian. Further, the TGI with HCT-116 colon amounted to 10.4 µM; in the test with TK-10 renal it was 8.85 µM; in the test on HOP-92 NSCLC, 5.21 µM; in the test on HT29 colon, 10.8 µM; in the test with MALME-3M melanoma it was 5.36 µM; in the test on UACC-257 melanoma it was 5.21 µM. Besides, the total growth inhibition concentration (TGI) in the test on UO-31 renal is 12.8 µM; with CAKI-1 renal, 13.1 µM; in the test on CCRF-CEM leukemia, more than 100 µM; in the test on OVCAR-4 ovarian it was 14 µM.
As for `COc1cc([N+](=O)[O-])c2ncccc2c1O`, the GI50 in the test with HCT-116 colon was 4.26 µM; in the test on TK-10 renal it was 10.7 µM; in the test on HOP-92 NSCLC it was 47.1 µM; in the test on HT29 colon, 2.26 µM; in the test on MALME-3M melanoma, 1.99 µM; with UACC-257 melanoma it was 2.56 µM. For the same compound, the GI50 with UO-31 renal is 2.05 µM; in the test on CAKI-1 renal it was 4.84 µM; in the test on CCRF-CEM leukemia, 95.2 µM; in the test with OVCAR-4 ovarian it was 26.6 µM. The TGI is 82.6 µM in the test with HCT-116 colon; 94.5 µM with TK-10 renal; more than 100 µM in the test on HOP-92 NSCLC; 22.9 µM in the test on HT29 colon; 4.74 µM in the test with MALME-3M melanoma; 7.65 µM in the test on UACC-257 melanoma. Moreover, the TGI is 10.4 µM in the test on UO-31 renal, 30.9 µM in the test on CAKI-1 renal, more than 100 µM in the test with CCRF-CEM leukemia and more than 100 µM with OVCAR-4 ovarian.
For the compound `COc1cc(C(=O)c2c(-c3ccccc3)oc3ccccc23)cc(OC)c1O`, the GI50 in the test with HCT-116 colon was 1.04 µM; with TK-10 renal, 20.5 µM; in the test on HOP-92 NSCLC, 0.595 µM; in the test with HT29 colon it was 9.78 µM; with MALME-3M melanoma, 1.13 µM; in the test with UACC-257 melanoma, 16 µM. In addition, the GI50 in the test with UO-31 renal is 3.14 µM; in the test on CAKI-1 renal, 0.766 µM; with CCRF-CEM leukemia, 1.71 µM; with OVCAR-4 ovarian, 5.46 µM. The TGI was 12.5 µM in the test on HCT-116 colon; more than 100 µM in the test on TK-10 renal; 12.7 µM in the test on HOP-92 NSCLC; more than 100 µM in the test on HT29 colon; 20.5 µM in the test with MALME-3M melanoma; 64.3 µM with UACC-257 melanoma. In addition, the TGI in the test with UO-31 renal was determined as 19.4 µM; in the test with CAKI-1 renal it was 16 µM; in the test with CCRF-CEM leukemia, 14.3 µM; with OVCAR-4 ovarian, 24.4 µM.
With `CC(C)(CN1CCCCC1)C(=O)CC(SCCS(=O)(=O)O)c1ccc(Cl)c(Cl)c1` (centres undefined), the TGI is 10.6 µM in the test on HCT-116 colon; 18.9 µM in the test with TK-10 renal; 6.18 µM in the test with HOP-92 NSCLC; 10.9 µM with HT29 colon; 22.1 µM in the test on MALME-3M melanoma; 20.8 µM with UACC-257 melanoma. Moreover, the TGI is 16.4 µM in the test with UO-31 renal, 12.9 µM with CAKI-1 renal, 4.69 µM in the test with CCRF-CEM leukemia and 9.38 µM in the test on OVCAR-4 ovarian.
Take `CCOc1ccc(N2C(N)=NC(N)=NC2(C)C)cc1`: the GI50 in the test with HCT-116 colon is 34.6 µM; in the test with TK-10 renal, more than 100 µM; in the test on HOP-92 NSCLC it was more than 100 µM; with HT29 colon, 58.1 µM; with MALME-3M melanoma, 56.4 µM; in the test on UACC-257 melanoma, more than 100 µM. Besides, the GI50 with UO-31 renal, with CAKI-1 renal, with CCRF-CEM leukemia and in the test on OVCAR-4 ovarian was more than 100 µM throughout. For the same compound, the TGI in the test with HCT-116 colon, with TK-10 renal, in the test with HOP-92 NSCLC, in the test on HT29 colon, in the test with MALME-3M melanoma and in the test on UACC-257 melanoma was more than 100 µM throughout. Moreover, the TGI with UO-31 renal, in the test with CAKI-1 renal, with CCRF-CEM leukemia and in the test with OVCAR-4 ovarian was more than 100 µM each time.
For the compound `CCN(CC)c1ccc(/C=N\NC(=O)c2cccc(Nc3ccnc(C(F)(F)F)c3)c2)c(O)c1`, the GI50 is 0.121 µM with HCT-116 colon; 0.371 µM in the test with TK-10 renal; 1.35 µM with HOP-92 NSCLC; 0.301 µM with HT29 colon; 0.348 µM with MALME-3M melanoma; 0.373 µM with UACC-257 melanoma. The GI50 was 0.202 µM with UO-31 renal, 0.182 µM with CAKI-1 renal, 0.084 µM with CCRF-CEM leukemia and 0.118 µM with OVCAR-4 ovarian. Besides, the TGI in the test with HCT-116 colon is 31 µM; with TK-10 renal, more than 100 µM; in the test on HOP-92 NSCLC, more than 100 µM; in the test on HT29 colon it was 7.26 µM; in the test with MALME-3M melanoma, 4.32 µM; in the test on UO-31 renal it was 2.69 µM. The TGI is 0.496 µM in the test with CAKI-1 renal, 1.27 µM in the test on CCRF-CEM leukemia and more than 100 µM in the test on OVCAR-4 ovarian.
`CC(C)=CCC[C@](C)(O)[C@H]1CC[C@]2(C)[C@@H]1CC[C@@H]1[C@@]3(C)CC[C@H](OC(=O)CCC(=O)O)C(C)(C)[C@@H]3CC[C@]12C`: the GI50 was 56.5 µM in the test on HCT-116 colon; 87.8 µM in the test on TK-10 renal; 14.5 µM with HOP-92 NSCLC; 29.2 µM with HT29 colon; 16.8 µM with MALME-3M melanoma; 36.9 µM in the test on UACC-257 melanoma. The GI50 in the test on UO-31 renal is 13.7 µM; in the test with CAKI-1 renal, 24.7 µM; in the test with CCRF-CEM leukemia, 12.1 µM; with OVCAR-4 ovarian, 27.6 µM. The TGI with HCT-116 colon is more than 100 µM; in the test with TK-10 renal it was more than 100 µM; with HOP-92 NSCLC it was 35.9 µM; in the test on HT29 colon, more than 100 µM; in the test with MALME-3M melanoma, 38.6 µM; in the test on UACC-257 melanoma, more than 100 µM. The total growth inhibition concentration (TGI) is 28 µM in the test with UO-31 renal, more than 100 µM with CAKI-1 renal, 58 µM in the test with CCRF-CEM leukemia and more than 100 µM in the test on OVCAR-4 ovarian.
Consider `C/C(=N\NC(=S)Nc1ccc([N+](=O)[O-])cc1S(=O)(=O)O)c1ccccn1`, for which the TGI in the test with HCT-116 colon, with TK-10 renal, with HOP-92 NSCLC, with HT29 colon, with MALME-3M melanoma and with UACC-257 melanoma was more than 100 µM throughout. For the same compound, the TGI is more than 100 µM in the test on UO-31 renal, more than 100 µM in the test on CAKI-1 renal, more than 100 µM in the test on CCRF-CEM leukemia and 95.3 µM in the test with OVCAR-4 ovarian.

For the origin of these results see PubChem BioAssay (NCI).
